From PubChem BioAssay AID1963972 (Molecular Pharmacology Branch, DTP, NCI, 2024)

System: 945468-187-T-J2-PDC spheroids viability
Assay: Anticancer human tumor 945468-187-T-J2-PDC patient-derived rectal carcinoma cell line growth inhibition [PI3K]
Settings: spheroids with HUVEC and MSC; for IC50: curve of first compound; for viability, T/C: stronger effect = lower value
Text: Combinatorial screen of targeted agents with the PI3K inhibitors inavolisib, alpelisib, duvelisib, and copanlisib in multi-cell type tumor spheroids
A high-throughput screen of multi-cell type tumor spheroids was designed to identify active combinations of targeted small molecules and PI3K pathway inhibitors. Complex spheroids include a stromal component modeled by human endothelial cells (HUVEC) and fibroblasts modeled by human mesenchymal stem cells (MSCs). The concentration ranges selected for each drug and investigational agent were based upon clinically achievable concentrations if the clinical Cmax of the agent was known.
Compounds. The drugs and investigational agents: inavolisib (NSC800729), alpelisib (NSC765974), duvelisib (NSC772469), copanlisib (NSC816437), ipatasertib (NSC767898), afuresertib (NSC778305), talazoparib (NSC767125), sapanisertib (NSC764658), selumetinib (NSC741078), tovorafenib (DAY101, NSC766906), vemurafenib (NSC761431), ravoxertinib (NSC781343), sotorasib (NSC818433), MRTX1133 (NSC 836407), abemaciclib (NSC 768073), palbociclib (NSC758247), venetoclax (NSC 766270), SY5609 (NSC837396), enzalutamide (NSC755605), and darolutamide (NSC825331), were obtained from the National Cancer Institute (NCI) Developmental Therapeutics Program Chemical Repository. The FDA-approved anticancer drug set is available from the NCI Developmental Therapeutics Program. […] The stock solutions were prepared in dimethyl sulfoxide (DMSO, Sigma-Aldrich, St. Louis, MO, cat. D2650) at 800-fold the tested concentration and stored at -70 degrees C prior to their use. All drugs and investigational agents were tested over a range starting from a high concentration at or near the clinical Cmax and decreasing in half-log increments. If the clinical Cmax for an agent had not been determined, the highest concentration tested was 10 microM.
Cell Culture. All cells were maintained in an incubator at 37 degrees C and 5% CO2 with 95% humidity. The PDC lines were cultured according to standard operating procedures established by the NCI PDMR (https://pdmr.cancer.gov/sops/default.htm). All PDCs were thawed and cultured in Matrigel-coated flasks prepared with a working solution of 1X Ham's F-12 nutrient mix, without supplementation (Invitrogen, Waltham, MA, cat. 11765054), 100 U/mL penicillin-streptomycin (Invitrogen, cat. 15140122), and 2.5% Matrigel (Corning Inc., Corning, NY, cat. 354248) for the first three passages. The 354836-022-R-J1-PDC, 475296-252-R-J1-PDC, and 997726-040-R-J2-PDC lines were cultured in 6A media, which includes advanced DMEM/F-12 (Thermo Fisher Scientific, cat. 12634028), 10 mM HEPES (Thermo Fisher Scientific, cat. 15630080), 1X GlutaMAX supplement (Thermo Fisher Scientific, cat. 35050061), 0.1 mg/mL primocin (InvivoGen, San Diego, CA, cat. ant-pm-2), 10% defined fetal bovine serum, heat inactivated (HyClone Laboratories Inc., Logan, UT, cat. SH30070.03HI), 50% L-WRN conditioned media (ATCC, cat. CRL-3276), 1.25 mM N-Acetyl-L-cysteine (Sigma-Aldrich, cat. A9165), 10 mM nicotinamide (Sigma-Aldrich, cat. N0636), 1X B-27 supplement (Thermo Fisher Scientific, cat. 17504044), 1X N-2 supplement (Thermo Fisher Scientific, cat. 17502048), and 10 microM Y-27632 dihydrochloride (Tocris Bioscience, Bristol, United Kingdom, cat. 1254). The 624824-186-R-J2-PDC line was cultured in 6C/Colon 1B media, which includes all 6A media components plus 50 ng/mL human EGF recombinant protein (Thermo Fisher Scientific, cat. PHG0311). […]

[1] = second compound 0.0316 µM, first compound 0.0316 µM
[2] = second compound 0.0316 µM, first compound 0.1 µM
[3] = second compound 0.0316 µM, first compound 0.316 µM
[4] = second compound 0.0316 µM, first compound 1 µM
[5] = second compound 0.0316 µM, first compound 3.16 µM
[6] = second compound 0.0316 µM, first compound 10 µM
[7] = second compound 0.1 µM, first compound 0.0316 µM
[8] = second compound 0.1 µM, first compound 0.1 µM
[9] = second compound 0.1 µM, first compound 0.316 µM
[10] = second compound 0.1 µM, first compound 1 µM
[11] = second compound 0.1 µM, first compound 3.16 µM
[12] = second compound 0.1 µM, first compound 10 µM
[13] = second compound 0.316 µM, first compound 0.0316 µM
[14] = second compound 0.316 µM, first compound 0.1 µM
[15] = second compound 0.316 µM, first compound 0.316 µM
[16] = second compound 0.316 µM, first compound 1 µM
[17] = second compound 0.316 µM, first compound 3.16 µM
[18] = second compound 0.316 µM, first compound 10 µM
[19] = second compound 1 µM, first compound 0.0316 µM
[20] = second compound 1 µM, first compound 0.1 µM
[21] = second compound 1 µM, first compound 0.316 µM
[22] = second compound 1 µM, first compound 1 µM
[23] = second compound 1 µM, first compound 3.16 µM
[24] = second compound 1 µM, first compound 10 µM
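Further: spheroids exposed to compounds for seven days before reading.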

Structure (SMILES): CC(Cn1ccc(-c2ccc(C#N)c(Cl)c2)n1)NC(=O)c1cc(C(C)O)[nH]n1 (centres undefined) + CC(Nc1ncnc2nc[nH]c12)c1cc2cccc(Cl)c2c(=O)n1-c1ccccc1
- IC50 (second compound 0.0316 µM): > 10 µM
- IC50 (second compound 0.1 µM): > 10 µM
- IC50 (second compound 0.316 µM): > 10 µM
- IC50 (second compound 1 µM): > 10 µM
- IC50 (second compound 3.16 µM): > 10 µM
- IC50 (second compound 10 µM): > 10 µM
- viability, T/C [1]: 99.9%
- viability, T/C [2]: 75.6%
- viability, T/C [3]: 108%
- viability, T/C [4]: 104%
- viability, T/C [5]: 99.9%
- viability, T/C [6]: 89.3%
- viability, T/C [7]: 128%
- viability, T/C [8]: 105%
- viability, T/C [9]: 106%
- viability, T/C [10]: 95.3%
- viability, T/C [11]: 117%
- viability, T/C [12]: 127%
- viability, T/C [13]: 111%
- viability, T/C [14]: 86.3%
- viability, T/C [15]: 87%
- viability, T/C [16]: 89.3%
- viability, T/C [17]: 91%
- viability, T/C [18]: 91.6%
- viability, T/C [19]: 87.2%
- viability, T/C [20]: 97.8%
- viability, T/C [21]: 78.4%
- viability, T/C [22]: 88.9%
- viability, T/C [23]: 82.6%
- viability, T/C [24]: 106%
- viability, T/C (second compound 3.16 µM, first compound 0.0316 µM): 92.7%
- viability, T/C (second compound 3.16 µM, first compound 0.1 µM): 94.1%
- viability, T/C (second compound 3.16 µM, first compound 0.316 µM): 103%
- viability, T/C (second compound 3.16 µM, first compound 1 µM): 89.6%
- viability, T/C (second compound 3.16 µM, first compound 3.16 µM): 92.3%
- viability, T/C (second compound 3.16 µM, first compound 10 µM): 85.3%
- viability, T/C (second compound 10 µM, first compound 0.0316 µM): 113%
- viability, T/C (second compound 10 µM, first compound 0.1 µM): 104%
- viability, T/C (second compound 10 µM, first compound 0.316 µM): 88.7%
- viability, T/C (second compound 10 µM, first compound 1 µM): 111%
- viability, T/C (second compound 10 µM, first compound 3.16 µM): 109%
- viability, T/C (second compound 10 µM, first compound 10 µM): 108%

Structure (SMILES): Cn1nccc1Nc1nccc(-c2ccn(C(CO)c3ccc(Cl)c(F)c3)c(=O)c2)n1 (centres undefined) + COc1c(OCCCN2CCOCC2)ccc2c3n(c(=NC(=O)c4cnc(N)nc4)nc12)CCN3
- IC50 (second compound 0.00316 µM): > 10 µM
- IC50 (second compound 0.01 µM): > 10 µM
- IC50 (second compound 0.0316 µM): > 10 µM
- IC50 (second compound 0.1 µM): > 10 µM
- IC50 (second compound 0.316 µM): < 0.0316 µM
- IC50 (second compound 1 µM): < 0.0316 µM
- viability, T/C (second compound 0.00316 µM, first compound 0.0316 µM): 117%
- viability, T/C (second compound 0.00316 µM, first compound 0.1 µM): 108%
- viability, T/C (second compound 0.00316 µM, first compound 0.316 µM): 98.9%
- viability, T/C (second compound 0.00316 µM, first compound 1 µM): 83.7%
- viability, T/C (second compound 0.00316 µM, first compound 3.16 µM): 90.9%
- viability, T/C (second compound 0.00316 µM, first compound 10 µM): 80.7%
- viability, T/C (second compound 0.01 µM, first compound 0.0316 µM): 99%
- viability, T/C (second compound 0.01 µM, first compound 0.1 µM): 93.7%
- viability, T/C (second compound 0.01 µM, first compound 0.316 µM): 90.1%
- viability, T/C (second compound 0.01 µM, first compound 1 µM): 136%
- viability, T/C (second compound 0.01 µM, first compound 3.16 µM): 127%
- viability, T/C (second compound 0.01 µM, first compound 10 µM): 84.2%
- viability, T/C [1]: 91.9%
- viability, T/C [2]: 102%
- viability, T/C [3]: 100%
- viability, T/C [4]: 89.1%
- viability, T/C [5]: 93.5%
- viability, T/C [6]: 89.2%
- viability, T/C [7]: 71%
- viability, T/C [8]: 75.9%
- viability, T/C [9]: 81.1%
- viability, T/C [10]: 82.2%
- viability, T/C [11]: 84.3%
- viability, T/C [12]: 64.9%
- viability, T/C [13]: 39.8%
- viability, T/C [14]: 45.6%
- viability, T/C [15]: 45.3%
- viability, T/C [16]: 41.7%
- viability, T/C [17]: 33.4%
- viability, T/C [18]: 27.8%
- viability, T/C [19]: 18.1%
- viability, T/C [20]: 19.8%
- viability, T/C [21]: 21.8%
- viability, T/C [22]: 18.6%
- viability, T/C [23]: 18.6%
- viability, T/C [24]: 16.8%
